Structures can show the parent of a compound that is named as a salt.

For experiment [1], the system named is late passage prostate epithelial cells. Put plainly: Proliferation of late passage prostate epithelial cells in KSFM plus compounds, 5 days. Format: cell-based, human. The conditions noted are these: for total cell number after 5 days: KSFM plus individual compound alone, 1 μM and 0.2 μM (FIG. 16). The protocol:
Stocks of certain chemicals used in the study were prepared by dissolving in DMSO to 10 mM. The chemical stocks were added to culture media to desired final concentrations, as described in Examples 2 to 5 and shown in FIGS. 1 to 17, from the time when cell culture was initiated.
In a control experiment with no added compound, there was minimum increase of cell numbers after 5 days.
In control experiment with no inhibitor added to KSFM, there was minimum increase of cell numbers after 5 days. […] As described above, these include Rho kinase inhibitors (i.e., Rho-associated protein kinase inhibitors) such as Y-27632, SR 3677, GSK 429286 and Thiazovivin; PAK1 inhibitor IPA-3; and myosin II inhibitor (i.e., non-muscle myosin II (NM II) inhibitor) Blebbistatin.

Experiment [2] has as its system keratinocytes. Put plainly: Expansion of keratinocytes in KSFM supplemented with combinations of components. Format: cell-based, human. The conditions noted are these: for cell growth rate: KSFM with EGF, isoproterenol, A 83-01 and rHA. The protocol:
In another experiment, keratinocytes were cultured in KSFM supplemented with various combinations of components.
In another experiment, keratinocytes were cultured in the presence of increasing doses of ROCK inhibitor (Y-27632) or Myosin II ATPase inhibitor (blebbistatin), in KSFM supplemented with EGF (0.5 ng/mL), isoproterenol (3 μM), A 83-01 (1 μM), and recombinant human serum albumin (expressed in rice; 100 μg/mL).
In another experiment, keratinocytes were cultured in the presence of increasing doses (between 10 nM to 2 μM) of retinoic acid receptors (RAR) antagonist BMS-453 or retinoic acid receptors (RAR) antagonist BMS-195614, in KSFM supplemented with EGF (0.5 ng/mL), isoproterenol (3 μM), A 83-01 (1 μM), and recombinant human serum albumin (expressed in rice; 100 μg/mL).

Experiment [3] relates to human telomerase reverse transcriptase (hTERT) gene. Put plainly: hTERT expression by quantitative real-time PCR in prostate epithelial cells. Format: cell-based. The conditions noted are these: KSFM. The procedure:
(§1) Total RNA was prepared using TRIzol® Plus RNA Purification Kit (Life Technologies, 12183-555) and PureLink® RNA Mini Kit (Life Technologies, 12183018A), following the manufacturer's instructions. One hundred nanogram total RNA was used for the determination of human telomerase reverse transcriptase (hTERT) expression using the TaqMan® RNA-to-CT™ 1-Step Kit (Life Technologies, 4392938), following the protocol provided by the supplier. hTERT primers and Taqman® probe used were as follows: forward primer, 5′-[…]-3′ (SEQ ID NO:7), reverse primer, 5′-[…]-3′ (SEQ ID NO:8) and Taqman® probe, 5′-[…]-3′ (SEQ ID NO:9).
(§2) In this example, hTERT expression in epithelial cells was assessed in the presence of an ALK5 inhibitor, a Rho kinase inhibitor (i.e., a Rho-associated protein kinase inhibitor), or both. Expression of hTERT gene was examined by quantitative real-time PCR in bronchial epithelial cells and prostate epithelial cells. The cells were treated with an ALK5 inhibitor, A83-01, or a Rho kinase inhibitor (i.e., a Rho-associated protein kinase inhibitor), Y-27632, or both inhibitors, at different passages in KSFM.
As shown in FIG. 6A and FIG. 6B, prostate epithelial cells at early passage (p2) expressed low level of hTERT, which quickly diminished at passage 3 and became non-detectible by passage 5.
A general note: In qPCR the cycle at which signal appears reflects the starting amount.

Experiment [4] has as its system prostate epithelial cells. Put plainly: Growth (population doublings) of prostate epithelial cells in culture. The experiment is classed as cell-based, human. Particulars: added to KSFM. The protocol:
(§3) Epithelial cells (prostate epithelial cells and bronchial epithelial cells) were plated at 3,000-10,000 viable cells/cm^2 in tissue culture vessels, using culture medium as indicated in Examples 2 to 5 and FIGS. 1 to 17, and incubated at 37° C. with 5% CO2. The medium was changed every 2 or 3 days. Cells were sub-cultured using standard trypsinization method when they were about 70-90% confluent. Total cell number was determined using the Countess II Automated Cell Counter (Life Technologies, AMQAX1000) following manufacturer's instructions.
(§4) A formula used for the calculation of population doublings (PD) is presented in Equation A: n=3.32*(log Y−log I)+X Equation A where n=the final PD number at end of a given subculture, Y=the cell yield at the time of harvesting, I=the cell number used as inoculum to begin that subculture, and X=the doubling level of the inoculum used to initiate the subculture being quantitated.
(§5) Prostate and bronchial epithelial cells were grown in KSFM in the presence of Rho kinase inhibitor (i.e., Rho-associated protein kinase inhibitor) Y-27632.
To examine the effects of additional in vitro and/or ex vivo growth conditions, prostate epithelial cells were grown in KSFM or PrEGM in the presence of media alone, ALK5 inhibitor A83-01, Rho kinase inhibitor (i.e., Rho-associated protein kinase inhibitor) Y-27632, or both (with or without collagen).

The test system of experiment [5] is bronchial epithelial cells. Nature of the experiment: Growth (population doublings) of bronchial epithelial cells in culture. The experiment is classed as cell-based, human. The conditions noted are these: added to KSFM. The procedure: as §3, §4, §5
Similar to the experiment above, bronchial epithelial cells were grown in KSFM in the presence of media alone, ALK5 inhibitor A83-01, Rho kinase inhibitor (i.e., Rho-associated protein kinase inhibitor) Y-27632, or both (with or without collagen).

Experiment [6] has as its system human telomerase reverse transcriptase (hTERT) gene. Put plainly: hTERT expression by quantitative real-time PCR in bronchial epithelial cells. The experiment is classed as cell-based. Particulars: KSFM. The procedure:
as §1, §2

The mark [7] stands for this setting: used together with A83-01 in KSFM, 5 μM, 1 μM and 0.2 μM (FIG. 17).
The mark [8] stands for this setting: increasing doses (between 10 nM to 2 μM).

On to `Cc1ccc2c(c1)C(=O)C1(O)CCN(c3ccccc3)C1=N2` (racemic) [Blebbistatin, (±)-1,2,3,3a-Tetrahydro-3a-hydroxy-6-methyl-1-phenyl-4H-pyrrolo[2,3-b]quinolin-4-one], for which the “total cell number after 5 days” value in experiment [1] (5 μM) is reported as “did not increase proliferation”. The “cell proliferation after 5 days” value in experiment [1] (setting [7]) is on record as “synergistically increased”. Also, in experiment [2] (increasing doses), the cell growth rate entry is listed as “No significant increase of cell growth rate”.

On to `Cc1cccc(-c2nn(C(=S)Nc3ccccc3)cc2-c2ccnc3ccccc23)n1` [A83-01, 3-(6-Methyl-2-pyridinyl)-N-phenyl-4-(4-quinolinyl)-1H-pyrazole-1-carbothioamide], for which, in experiment [1] (KSFM plus compound alone (FIG. 17)), the “cell proliferation after 5 days” value is “significantly increased”. The “total cell number after 5 days” value in experiment [1] (5 μM) is reported as “pronounced increase of total cell number”. For the same compound, the hTERT expression result in experiment [3] (early passage (p2)) is listed as “quickly induced”; in experiment [3] (late passage (p5)), “sustained measurable hTERT expression”; in experiment [6] (early passage (p3)), “robustly induced”; in experiment [6] (late passage (p6)), “sustained measurable hTERT expression”. Also, the total population doublings result in experiment [4] and in experiment [5] was “also increased the total population doublings” throughout.

Turning to `CC1(C)CC=C(c2ccccc2)c2cc(/C=C/c3ccc(C(=O)O)cc3)ccc21` [BMS-453], the proliferation of keratinocytes result in experiment [2] (100 nM, with A83-01, EGF, isoproterenol and rHA) is “further increased the proliferation of keratinocytes”. Moreover, the cell growth rate result in experiment [2] (setting [8]) is reported as “further enhance cell growth rate at sub-micromolar doses”.

Consider `CC1(C)CC=C(c2cnc3ccccc3c2)c2cc(C(=O)Nc3ccc(C(=O)O)cc3)ccc21` [BMS-195614], for which, in experiment [2] (setting [8]), the cell growth rate result is “further enhance cell growth rate at sub-micromolar doses”.

On to `CC1=C(C(=O)Nc2cc3cn[nH]c3cc2F)C(c2ccc(C(F)(F)F)cc2)CC(=O)N1` (stereo not shown) [GSK 429286, 4-[4-(Trifluoromethyl)phenyl]-N-(6-Fluoro-1H-indazol-5-yl)-2-methyl-6-oxo-1,4,5,6-tetrahydro-3-pyridinecarboxamide], for which, in experiment [1] (5 μM), the “total cell number after 5 days” value is “slight increase of total cell numbers”. The “cell proliferation after 5 days” value in experiment [1] (setting [7]) is “synergistically increased”.

`O=C(NC1CCOCC1)c1ccc(-c2cc(-c3c[nH]nc3-c3ccccn3)ccn2)cc1` [GW 788388, 4-[4-[3-(2-Pyridinyl)-1H-pyrazol-4-yl]-2-pyridinyl]-N-(tetrahydro-2H-pyran-4-yl)-benzamide]: the “total cell number after 5 days” value in experiment [1] (5 μM) is recorded as “pronounced increase of total cell number”. Further, in experiment [1] (setting [7]), the “cell proliferation after 5 days” value was “little extra increase”.

Consider `Oc1ccc2ccccc2c1SSc1c(O)ccc2ccccc12` [IPA-3, 1,1′-Dithiodi-2-naphthtol], for which the “total cell number after 5 days” value in experiment [1] (5 μM) is on record as “did not increase proliferation”. In experiment [1] (setting [7]), the “cell proliferation after 5 days” value is reported as “synergistically increased”.

As for `Cc1cccc(-c2n[nH]cc2-c2ccc3ncccc3n2)n1` [RepSox, 2-(3-(6-Methylpyridine-2-yl)-1H-pyrazol-4-yl)-1,5-naphthyridine], the “total cell number after 5 days” value in experiment [1] (5 μM) is “pronounced increase of total cell number”. Moreover, in experiment [1] (setting [7]), the “cell proliferation after 5 days” value is “little extra increase”.

In the case of `NC(=O)c1ccc(-c2nc(-c3ccc4c(c3)OCO4)c(-c3ccccn3)[nH]2)cc1` [SB 431542, 4-[4-(1,3-benzodioxol-5-yl)-5-(2-pyridinyl)-1H-imidazol-2-yl]benzamide], the “total cell number after 5 days” value in experiment [1] (5 μM) is listed as “pronounced increase of total cell number”. Also, in experiment [1] (setting [7]), the “cell proliferation after 5 days” value was “little extra increase”.

Consider `CN(C)CCOc1cc(-c2cn[nH]c2)ccc1NC(=O)C1COc2ccccc2O1` (stereo not shown) [SR 3677, N-[2-[2-(Dimethylamino)ethoxy]-4-(1H-pyrazol-4-yl)phenyl-2,3-dihydro-1,4-benzodioxin-2-carboxamidedihydrochloride], for which, in experiment [1] (5 μM), the “total cell number after 5 days” value is listed as “slight increase of total cell numbers”. The “cell proliferation after 5 days” value in experiment [1] (setting [7]) is on record as “synergistically increased”.

Take `O=C(NCc1ccccc1)c1csc(Nc2ccncn2)n1` [Thiazovivin, N-Benzyl-[2-(pyrimidin-4-yl)amino]thiazole-4-carboxamide]: the “total cell number after 5 days” value in experiment [1] (5 μM) was “slight increase of total cell numbers”. The “cell proliferation after 5 days” value in experiment [1] (setting [7]) is given as “synergistically increased”.

Source of the values: patent US11060715B2, “Ex vivo proliferation of epithelial cells” (PROPAGENIX INC., priority 2015, dated 2021).
